Experimental data reported in US20260000656A1, “ANTIFUNGAL AGENTS WITH ENHANCED ACTIVITY IN ACIDIC PH” (Scynexis, Inc., priority 2017, published 2026).
Values after ≈ are worked out from the molar mass of the structure shown. Where two headings read alike, the source gives them in different places.

Test system: C. glabrata isolates
Assay: Broth microdilution susceptibility (CLSI M27-A3) at different medium pH
Format: cell-based, Candida glabrata
Details: for MIC50 / MIC90 / MIC: Nakaseomyces glabratus, 24 h; for MIC50: read-out: MIC50; for MIC90: read-out: MIC90
Method: Ten strains each of C. glabrata and C. albicans vaginal isolates were tested. The strains were obtained from recent clinical trial patients with vulvovaginal candidiasis (VVC) prior to treatment. Candida strains were obtained from the Mycology Reference Library (MRL) at Case Western Reserve University School of Medicine, Ohio, United States.
Susceptibility testing was performed using a broth microdilution method, according to CLSI M27-A3 guidelines (CLSI. 2008. Reference Method for Broth Dilution Antifungal Susceptibility Testing of Yeasts; Approved Standard—Third Edition. Clinical and Laboratory Standards Institute, CLSI document M27-A3). Antifungals and concentrations tested were SCY-078 and micafungin (both at concentrations within the range of 0.015 to 8 μg/ml) and fluconazole (at concentrations within the range of 0.125 to 64 μg/ml). A 0.1-ml C. albicans and C. glabrata inoculum of 0.5-2.5×10^3 blastospores/ml in RPMI 1640 medium was added to each microdilution well. ATCC strains of Candida parapsilosis and Candida krusei QC isolates were also included concurrently to ensure quality control. Antifungal susceptibility testing was carried out for each isolate in RPMI 1640 at pH 7 (to mimic RPMI medium used in testing the susceptibility of yeast by the CLSI M-27A3 document), pH 5.7, and pH 4.5 (to mimic the pH of the vaginal cavity) by adjusting the pH of the media using NaOH or HCl. […] Agents Chemother., 43: 1383-1386 (1999).
[…] SCY-078 powder was manufactured by Avista, Laboratories, NC. Micafungin and fluconazole were sourced from LGM Pharma.

[1] = pH 4.5, 50% inhibition, pH 4.5, 24 h, 10 vaginal isolates
[2] = pH 4.5, 100% inhibition, pH 4.5, 24 hours, 10 isolates
[3] = pH 5.72, 50% inhibition, pH 5.72, 24 h, 10 vaginal isolates
[4] = pH 5.72, 100% inhibition, pH 5.72, 24 hours, 10 isolates

`CC(C)[C@@H](C)[C@@]1(C)CC[C@]2(C)[C@H]3CC[C@@H]4[C@@]5(COC[C@]4(C)[C@@H](OC[C@](C)(N)C(C)(C)C)[C@H](n4ncnc4-c4ccncc4)C5)C3=CC[C@@]2(C)[C@@H]1C(=O)O` [SCY-078] gave an MIC range (50% inhibition, pH 4.5, 24 h, 10 vaginal isolates) of 0.031 to 0.063 µg/mL, an MIC range (50% inhibition, pH 5.72, 24 h, 10 vaginal isolates) of 0.5 µg/mL (≈ 0.685 µM) and an MIC range (50% inhibition, pH 7.0, 24 h, 10 vaginal isolates) of 0.5 to 1 µg/mL. The MIC range (100% inhibition, pH 4.5, 24 hours, 10 isolates) was 0.063 to 0.125 µg/mL, the MIC range (100% inhibition, pH 5.72, 24 hours, 10 isolates) was 1 µg/mL (≈ 1.37 µM) and the MIC range (100% inhibition, pH 7.0, 24 hours, 10 isolates) was 1 to 2 µg/mL. The “reduction in MIC50 at pH 4.5 compared to the MIC50 at pH 7.0” value (C. glabrata isolates) was 16 fold, the MIC50 [1] was 0.063 µg/mL (≈ 0.0863 µM) and the MIC90 [1] was 0.063 µg/mL (≈ 0.0863 µM). The MIC50 [2] was 0.125 µg/mL (≈ 0.171 µM), the MIC90 [2] was 0.125 µg/mL (≈ 0.171 µM) and the MIC (pH 4.5, C. glabrata MRL 32075, pH 4.5, 24 hours, read-out: MIC (50% inhibition)) was 0.063 µg/mL (≈ 0.0863 µM). It also gave an MIC (pH 4.5, C. glabrata MRL 32075, pH 4.5, 24 hours, read-out: MIC (100% inhibition)) of 0.125 µg/mL (≈ 0.171 µM), an MIC (pH 4.5, C. glabrata MRL 32232, pH 4.5, 24 hours, read-out: MIC (50% inhibition)) of 0.063 µg/mL (≈ 0.0863 µM) and an MIC (pH 4.5, C. glabrata MRL 32232, pH 4.5, 24 hours, read-out: MIC (100% inhibition)) of 0.125 µg/mL (≈ 0.171 µM). It also gave an MIC (pH 4.5, C. glabrata MRL 32626, pH 4.5, 24 hours, read-out: MIC (50% inhibition)) of 0.063 µg/mL (≈ 0.0863 µM), an MIC (pH 4.5, C. glabrata MRL 32626, pH 4.5, 24 hours, read-out: MIC (100% inhibition)) of 0.125 µg/mL (≈ 0.171 µM) and an MIC (pH 4.5, C. glabrata MRL 32993, pH 4.5, 24 hours, read-out: MIC (50% inhibition)) of 0.031 µg/mL (≈ 0.0425 µM). The MIC (pH 4.5, C. glabrata MRL 32993, pH 4.5, 24 hours, read-out: MIC (100% inhibition)) was 0.063 µg/mL (≈ 0.0863 µM), the MIC (pH 4.5, C. glabrata MRL 33204, pH 4.5, 24 hours, read-out: MIC (50% inhibition)) was 0.031 µg/mL (≈ 0.0425 µM) and the MIC (pH 4.5, C. glabrata MRL 33204, pH 4.5, 24 hours, read-out: MIC (100% inhibition)) was 0.063 µg/mL (≈ 0.0863 µM). For the same molecule, the MIC (pH 4.5, C. glabrata MRL 33960, pH 4.5, 24 hours, read-out: MIC (50% inhibition)) was 0.031 µg/mL (≈ 0.0425 µM), the MIC (pH 4.5, C. glabrata MRL 33960, pH 4.5, 24 hours, read-out: MIC (100% inhibition)) was 0.063 µg/mL (≈ 0.0863 µM) and the MIC (pH 4.5, C. glabrata MRL 33961, pH 4.5, 24 hours, read-out: MIC (50% inhibition)) was 0.063 µg/mL (≈ 0.0863 µM). For the same molecule, the MIC (pH 4.5, C. glabrata MRL 33961, pH 4.5, 24 hours, read-out: MIC (100% inhibition)) was 0.063 µg/mL (≈ 0.0863 µM), the MIC (pH 4.5, C. glabrata MRL 34339, pH 4.5, 24 hours, read-out: MIC (50% inhibition)) was 0.063 µg/mL (≈ 0.0863 µM) and the MIC (pH 4.5, C. glabrata MRL 34339, pH 4.5, 24 hours, read-out: MIC (100% inhibition)) was 0.125 µg/mL (≈ 0.171 µM). For the same molecule, the MIC (pH 4.5, C. glabrata MRL 34407, pH 4.5, 24 hours, read-out: MIC (50% inhibition)) was 0.063 µg/mL (≈ 0.0863 µM), the MIC (pH 4.5, C. glabrata MRL 34407, pH 4.5, 24 hours, read-out: MIC (100% inhibition)) was 0.125 µg/mL (≈ 0.171 µM) and the MIC (pH 4.5, C. glabrata MRL 34576, pH 4.5, 24 hours, read-out: MIC (50% inhibition)) was 0.063 µg/mL (≈ 0.0863 µM). For the same molecule, the MIC (pH 4.5, C. glabrata MRL 34576, pH 4.5, 24 hours, read-out: MIC (100% inhibition)) was 0.125 µg/mL (≈ 0.171 µM), the MIC50 [3] was 0.5 µg/mL (≈ 0.685 µM) and the MIC90 [3] was 0.5 µg/mL (≈ 0.685 µM). For the same molecule, the MIC50 [4] was 1 µg/mL (≈ 1.37 µM), the MIC90 [4] was 1 µg/mL (≈ 1.37 µM) and the MIC (pH 5.72, C. glabrata MRL 32075, pH 5.72, 24 hours, read-out: MIC (50% inhibition)) was 0.5 µg/mL (≈ 0.685 µM). The MIC (pH 5.72, C. glabrata MRL 32075, pH 5.72, 24 hours, read-out: MIC (100% inhibition)) was 1 µg/mL (≈ 1.37 µM), the MIC (pH 5.72, C. glabrata MRL 32232, pH 5.72, 24 hours, read-out: MIC (50% inhibition)) was 0.5 µg/mL (≈ 0.685 µM) and the MIC (pH 5.72, C. glabrata MRL 32232, pH 5.72, 24 hours, read-out: MIC (100% inhibition)) was 1 µg/mL (≈ 1.37 µM). For the same molecule, the MIC (pH 5.72, C. glabrata MRL 32626, pH 5.72, 24 hours, read-out: MIC (50% inhibition)) was 0.5 µg/mL (≈ 0.685 µM).
